Source: ChEMBL document CHEMBL6096652, “Design, synthesis and anti-tumor evaluation of novel pyrimidine and quinazoline analogues” (Eur J Med Chem, 2025)

Experiments:
[1] = system: B16-F10; experiment: Antiproliferative activity against mouse B16-F10 cells incubated for 48 hrs by MTT assay; format: functional, cell-based; details: B16-F10, 48 h
[2] = system: A549; experiment: Antiproliferative activity against human A549 cells incubated for 48 hrs by MTT assay; format: functional, cell-based; details: A549, 48 h
[3] = system: HepG2; experiment: Antiproliferative activity against human HepG2 cells incubated for 48 hrs by MTT assay; format: functional, cell-based; details: HepG2, 48 h
[4] = system: MCF7; experiment: Antiproliferative activity against human MCF7 cells incubated for 48 hrs by MTT assay; format: functional, cell-based; details: MCF7, 48 h
[5] = system: B16-F10; experiment: Inhibition of cell migration in mouse B16-F10 cells assessed as recovery of scratch area at 50 nM incubated for 24 hrs by wound healing assay (reference value: 72.97 %); format: functional; set-up: scale not given: the % may be the effect or the level left
[6] = system: B16-F10; experiment: Antitumor activity against mouse B16-F10 cells implanted in C57BL/6 mouse at 10 mg/kg measured after 10 days relative to control; format: functional; details: B16-F10, 240 h, time 10 day, read-out: TGI

| Structure (SMILES) | IC50 [1] | IC50 [2] | IC50 [3] | IC50 [4] | Activity [5] | inhibition in vivo at 10 mg/kg [6] |
| --- | --- | --- | --- | --- | --- | --- |
| COc1cc(Nc2ccnc(-c3cccc4c3cnn4C)n2)cc(OC)c1OC | 4.57 µM | 5.55 µM | 5.92 µM | 7.12 µM | – | – |
| COc1cc(Nc2ccnc(-c3ccc(O)c(C)c3)n2)cc(OC)c1OC | 4.97 µM | 1.08 µM | 6.53 µM | 6.74 µM | – | – |
| COc1cc(NC(=O)c2ccnc(-c3ccc4c(c3)OCCO4)n2)cc(OC)c1OC | > 50 µM | 3.11 µM | > 50 µM | > 50 µM | – | – |
| COc1cc(Nc2ccnc(-c3ccc4c(ccn4C)c3)n2)cc(OC)c1OC | 1.82 µM | 2.31 µM | 4.9 µM | 5.31 µM | – | – |
| COc1cc(NC(=O)c2ccnc(-c3ccccc3)n2)cc(OC)c1OC | > 50 µM | 5.38 µM | 2.32 µM | > 50 µM | – | – |
| COc1cc(NC(=O)c2ccnc(-c3ccc(C)cc3)n2)cc(OC)c1OC | > 50 µM | 6.08 µM | > 50 µM | > 50 µM | – | – |
| COc1cc(NC(=O)c2ccnc(-c3cccc4c3ccn4C)n2)cc(OC)c1OC | 2.28 µM | 3.09 µM | 1.1 µM | 1.89 µM | – | – |
| COc1cc(NC(=O)c2ccnc(-c3ccc(C(F)(F)F)cc3)n2)cc(OC)c1OC | > 50 µM | > 50 µM | > 50 µM | > 50 µM | – | – |
| COc1cc(Nc2ccnc(-c3cc(OC)c(OC)c(OC)c3)n2)cc(OC)c1OC | > 50 µM | > 50 µM | > 50 µM | > 50 µM | – | – |
| COc1cc(Nc2ccnc(-c3ccc4c(cnn4C)c3)n2)cc(OC)c1OC | 1.85 µM | 0.598 µM | 1.46 µM | 1.13 µM | – | – |
| COc1cc2c(c(OC)c1OC)-c1ccc(OC)c(=O)cc1[C@@H](NC(C)=O)CC2 [COLCHICINE] | 0.079 µM | 0.507 µM | 0.038 µM | 0.031 µM | 33.68% | 72.8% |
| COc1ccc(-c2nccc(C(=O)Nc3cc(OC)c(OC)c(OC)c3)n2)cc1OC | > 50 µM | > 50 µM | > 50 µM | > 50 µM | – | – |

More lines, main results first:

| IC50 [1] | IC50 [2] | IC50 [3] | IC50 [4] | Structure (SMILES) | Activity [5] | inhibition in vivo at 10 mg/kg [6] |
| --- | --- | --- | --- | --- | --- | --- |
| 0.331 µM | 5.6 µM | > 50 µM | > 50 µM | COc1ccc(-c2nc(Nc3cc(OC)c(OC)c(OC)c3)c3ccccc3n2)cc1OC | – | – |
| 8.25 µM | 6.51 µM | 7.94 µM | > 50 µM | COc1cc(Nc2ccnc(-c3ccc(F)cc3)n2)cc(OC)c1OC | – | – |
| > 50 µM | 4.76 µM | 4.33 µM | > 50 µM | COc1cc(Nc2ccnc(-c3ccc(C#N)cc3)n2)cc(OC)c1OC | – | – |
| > 50 µM | 1.83 µM | 2.44 µM | > 50 µM | COc1cc(Nc2nc(-c3ccc(C)cc3)nc3ccccc23)cc(OC)c1OC | – | – |
| 7.62 µM | 2.14 µM | 1.85 µM | 5.77 µM | COc1cc(Nc2ccnc(-c3ccc(C)cc3)n2)cc(OC)c1OC | – | – |
| 2.69 µM | 2.22 µM | 1.22 µM | 7.27 µM | COc1ccc(-c2nccc(Nc3cc(OC)c(OC)c(OC)c3)n2)cc1 | – | – |
| 7.2 µM | 4.08 µM | 9.2 µM | > 50 µM | COc1cc(Nc2ccnc(-c3ccccc3)n2)cc(OC)c1OC | – | – |
| 0.784 µM | 1.35 µM | 0.547 µM | 0.877 µM | COc1cc(Nc2nc(-c3cccc4c3ccn4C)nc3ccccc23)cc(OC)c1OC | – | – |
| > 50 µM | > 50 µM | > 50 µM | > 50 µM | COc1ccc(-c2nc(Nc3cc(OC)c(OC)c(OC)c3)c3ccccc3n2)cc1 | – | – |
| > 50 µM | > 50 µM | > 50 µM | > 50 µM | COc1cc(Nc2nc(-c3ccc(F)cc3)nc3ccccc23)cc(OC)c1OC | – | – |
| 0.132 µM | 0.396 µM | 0.781 µM | 2.94 µM | COc1cc(Nc2nc(-c3cc(OC)c(OC)c(OC)c3)nc3ccccc23)cc(OC)c1OC | – | – |
| 0.884 µM | 3.96 µM | 0.807 µM | 4.89 µM | COc1cc(Nc2nc(-c3ccccc3)nc3ccccc23)cc(OC)c1OC | – | – |
| > 50 µM | 3.09 µM | > 50 µM | > 50 µM | COc1ccc(-c2nccc(Nc3cc(OC)c(OC)c(OC)c3)n2)cn1 | – | – |
| 1.78 µM | 6.47 µM | 3.14 µM | 3.33 µM | COc1cc(Nc2nc(-c3ccc4c(cnn4C)c3)nc3ccccc23)cc(OC)c1OC | – | – |
